Earlier results in patent US20180255771A1, “CONTROLLED GAS PHASE RELEASE OF NON AQUEOUS PHASE LIQUID ESSENTIAL OIL COMPOUNDS FOR AROMATHERAPY, FRAGRANCE AND INSECTICIDAL ACTIVITY” (priority 2015, published 2018).

How the values were obtained:
[1] = USEPA conclusion
[2] = at 20° C.
Ixodes ricinus = conditions: for repellency to Ixodes ricinus: 1 ug dose; for repellency to Ixodes ricinus compared with DEET: 10 ug dose

SMILES	repellency to Ixodes ricinus (Ixodes ricinus)	repellency to Ixodes ricinus compared with DEET (Ixodes ricinus)	further results
CCN(CC)C(=O)c1cccc(C)c1 [DEET, N,N-diethyl-meta-toluamide]	not reported to be effective	–	risks to humans or the environment [1]: will generally not cause unreasonable risks; vapor pressure [2]: 0.0056 mm Hg
CCc1ccc(O)c(O)c1 [4-Ethyl-1,2-benzenediol]	statistically significantly more repellent	as repellent as DEET	–
C=CCc1ccc(O)c(OC)c1 [eugenol]	–	–	repelling ticks (Ixodes ricinus) compared with DEET (Ixodes ricinus; 100 ug dose, DEET at a 100 ug dose): as effective at repelling ticks
C=CCc1cc(OC)c(O)c(OC)c1 [4-Allyl-2,6-dimethoxyphenol]	–	as repellent as DEET	–
Cc1ccc(O)c(O)c1 [4-Methyl-1,2-benzenediol]	–	as repellent as DEET	–
